Assay results as given in publication PMC12348470, “Amino Acid Substitutions in Bacteriocin Lactolisterin BU Reveal Functional Domains Involved in Biological Activity Against Staphylococcus aureus” (Molecules, 2025).
Ends that are not written are not given here.

Legend:
[1] = system: S. aureus ATCC 25923; test: Spot-on-the-lawn antimicrobial screening; assay type: cell-based, Staphylococcus aureus; settings: 5 µL spots at 1000, 500, 250, 125 and 62.5 µg/mL on LB soft agar lawn; overnight, 37 °C
Method: The antimicrobial activity screening assay of twelve chemically synthesized peptides was evaluated using a spot-on-the-lawn assay against S. aureus ATCC 25923.
S. aureus ATCC 25923 was grown overnight in LB broth, adjusted to 0.5 McFarland (~1 × 10^8 CFU/mL), and mixed 1:100 into molten soft agar (0.7% agar in LB). Five milliliters of this suspension was overlaid onto LB agar plates and allowed to solidify.
Peptide stock solutions (1 mg/mL) were serially diluted in sterile water, and 5 µL of each dilution was carefully spotted onto the surface of the inoculated agar. The plates were dried under a laminar flow hood for 15–20 min and incubated overnight at 37 °C. Zones were observed, and their size and clarity were compared.

[2] = system: S. aureus ATCC 25923; assay type: cell-based, Staphylococcus aureus
Method: MIC values were determined by broth microdilution following the guidelines of the European Committee on Antimicrobial Susceptibility Testing (EUCAST, Version 5.0), with a modification in the choice of medium. Instead of cation-adjusted Mueller–Hinton Broth (CA-MHB), Luria–Bertani (LB) broth was used for all MIC assays involving S. aureus ATCC 25923 to ensure consistency with conditions used in complementary experiments. Two-fold serial dilutions of peptides (ranging from 1.56 to 50 µg/mL) were prepared in sterile LB, inoculated with ~5 × 10^5 CFU/mL bacterial suspension, and incubated at 37 °C for 18–20 h. MIC was defined as the lowest peptide concentration with no visible bacterial growth. All assays were performed in triplicate.

[3] = system: S. aureus ATCC 25923; assay type: cell-based, Staphylococcus aureus; remark: listed apart in the source
[4] = system: sheep erythrocytes; test: Hemolysis assay; assay type: cell-based
Method: Hemolytic activity of peptides was assessed as described by Dong et al., with some modifications. Fresh defibrinated sheep blood was obtained from the Institute of Virology, Vaccines and Sera “Torlak” (Belgrade, Serbia). Erythrocytes were washed three times with sterile Tris-buffered saline (TBS, 10 mM TRIS-HCl, pH 7.4, 150 mM NaCl) by centrifugation at 800× g for 5 min and resuspended to a final 2% (v/v) erythrocyte suspension in TBS.
Peptide solutions (0.02 M HCl) were diluted in Tris-buffered saline (TBS, 10 mM TRIS-HCl, pH 7.4, 150 mM NaCl) to final concentrations ranging from 6.25 to 50 µg/mL. In a 96-well flat-bottom plate, 100 µL of peptide solution was mixed with 100 µL of erythrocyte suspension and incubated at 37 °C for 1 h.
After incubation, the plates were centrifuged at 1000× g for 5 min, and 100 µL of the supernatant was transferred to a flat-bottom 96-well plate. Absorbance was measured at 540 nm using a microplate reader (model BioTek Epoch Microplate Spectrophotometer; Agilent Technologies, Winooski, VT, USA).
Hemolysis (%) was calculated relative to a negative control (TBS; 0% lysis) and a positive control (0.1% SDS; 100% lysis) using the formula: Hemolysis (%)=Asample−ATBS/ASDS−ATBS×100
The assay was performed in triplicate.

[5] = system: Danio rerio embryos; test: Zebrafish embryo toxicity (OECD TG 236); assay type: in vivo; settings: 120 hpf
Method: Embryos were exposed to six different increasing concentrations of each peptide for 5 consecutive days (120 hfp) and examined for survival and signs of toxicity, following toxicological endpoints (Table S1).
The toxicity of synthetic peptide variants was assessed in vivo using Danio rerio embryos, in accordance with OECD Test Guideline 236 (Fish Embryo Acute Toxicity Test) and the European Directive 2010/63/EU on the protection of animals used for scientific purposes, according to Aleksic et al.. All procedures were conducted at the Institute of Molecular Genetics and Genetic Engineering, University of Belgrade.
Wild-type adult zebrafish were maintained under standard laboratory conditions (28 °C; 14:10 h light–dark cycle). Embryos were obtained via pairwise mating and collected within 1 h post-fertilization (hpf). At 5 hpf, the embryos were randomly distributed into 24-well plates (10 embryos/well, 1 mL embryo medium per well) containing embryo water (0.2 mg/mL Instant Ocean® salts in distilled water). Peptides were tested at five concentrations (e.g., 1.56–25 µg/mL) in triplicate. Peptide solvent was used as a negative control. The plates were incubated at 28 °C without media replacement.
Embryonic development was monitored using an inverted microscope (Zeiss Stemi 508; Carl Zeiss Microscopy GmbH, Jena, Germany). Lethal endpoints and sublethal malformations were scored according to OECD guidelines (Table S1). At 120 hpf, the embryos were anesthetized using 0.1% tricaine, photographed, and euthanized via freezing at −20 °C for 24 h.
LC50 values were estimated using the log–logistic binomial model (LL.2) from the drc package in R.
Dose–response curves and LC50 values were estimated using the log–logistic binomial model (LL.2) from the drc package in R [79] (version 2025.05.0). Mortality data were modeled as proportions of dead individuals relative to total individuals tested, and 95% confidence intervals for LC50 were calculated using the delta method.

[6] = design: method as in PMID 28842543; settings: cited from earlier work
[7] = system: gut peptidases; design: method as in PMID 28842543; settings: cited from earlier work

MEGRILGTVAKYGPKAVSWAWQHKWELINMGDLAFRYIQRIWG [Peptide W2E]
zones of inhibition, spot-on-the-lawn assay [1]: decreased antimicrobial potency | MIC [2]: >50 µg/mL | MBC [3]: >50 µg/mL

MWARILGTVAKYGPKAVSWAWQAKWELINMGDLAFRYIQRIWG [G3A/H23A]
zones of inhibition, spot-on-the-lawn assay [1]: complete loss of antimicrobial activity | MIC [2]: >50 µg/mL | MBC [3]: >50 µg/mL

MWGRILGTVAKYGAKAVSWAWQHKWELINMGDLAFRYIQRIWG [Peptide P14A]
zones of inhibition, spot-on-the-lawn assay [1]: only faint inhibition zones at the highest concentrations (1000 and 500 µg/mL) | MIC [2]: 25 µg/mL

MWGRILGTVAKYGPKAVSWAWQAKWELINMGDLAFRYIQRIWG [Peptide H23A]
zones of inhibition, spot-on-the-lawn assay [1]: complete loss of antimicrobial activity | MIC [2]: >50 µg/mL | MBC [3]: >50 µg/mL

MWGRILGTVAKYGPKAVSWAWQHKWELINMGDLAFRYIQRIWG [LBU]
zones of inhibition, spot-on-the-lawn assay [1]: clear zones of inhibition across the tested concentrations, except 62.5 µg/mL | MIC [2]: 12.5 µg/mL | MBC [3]: 25 µg/mL | hemolytic activity, in words ([4]; 6.25 to 50 µg/mL, sheep erythrocytes, 37 °C, 1 h): negligible hemolytic activity across all concentrations | Hemolytic activity (%) at 50 µg/mL ([4]; pH 7.4): 2.98% | concentration at which yolk sac retention was observed [5]: 6250 ng/mL | pH range of activity [6]: shows activity in a wide pH range | salt tolerance [6]: salt-tolerable | sensitivity to gut peptidases [7]: sensitive to gut peptidases

MWGRILGTVAKYGPKAVSWAWQRKWELINMGDLAFRYIQRIWG [Peptide H23R]
zones of inhibition, spot-on-the-lawn assay [1]: comparable to the wild-type LBU peptide | MIC [2]: 12.5 µg/mL | MBC [3]: 50 µg/mL

MWGRILGTVAKYGTKAVSWAWQHKWELINMGDLAFRYIQRIWG [Peptide P14T]
zones of inhibition, spot-on-the-lawn assay [1]: retained partial activity with a mild decrease in zone diameter compared to LBU | MIC [2]: 25 µg/mL | MBC [3]: >50 µg/mL
